Data as given in patent US7749955B2, “Separation of polypeptides comprising a racemized amino acid” (Novo Nordisk A/S, priority 2003, dated 2010).

Test: isoelectric pH of the peptide (isoelectric precipitation)
Type: physicochemical
Conditions: pH at which the peptide was precipitated after chromatography
Source text: Arg^34GLP-1(7-37) was expressed in yeast (S. cerevisiae) by conventional recombinant technology as described elsewhere (WO 98/08871). Arg^34GLP-1(7-37) in the fermentation broth was then purified by conventional reversed phase chromatography and subsequently precipitated at the isoelectric pH of the peptide, i.e. at pH 5.4. The precipitate was isolated by centrifugation. Following another RP-LC purification step and isoelectric precipitation, the Arg^34GLP-1(7-37) peptide was acylated as decribed in WO 00/55119 to give the GLP-1 derivative Arg^34Lys^26N^ε(γ-Glu(N^α-hexadecanoyl))GLP-1(7-37).
L17K, K30R-GLP2(1-33) was expressed in yeast (S. cerevisiae) by conventional recombinant technology in a similar manner as described in WO 98/08871 for GLP-1 peptides. L17K, K30R-GLP2(1-33) in the fermentation broth was then purified by conventional aniaon exchange and reversed phase chromatography and subsequently precipitated at the isoelectric pH of the peptide, i.e. at pH 4. The precipitate was isolated by centrifugation. D-His-L17K, K30R-GLP2(1-33) was prepared by solid phase synthesis.

Row | Substance | isoelectric pH of the peptide
1 | Arg^34GLP-1(7-37) | 5.4 pH
2 | L17K, K30R-GLP2(1-33) (HADGSFSDEMNTILDNKAARDFINWLIQTRITD; Glucagon-like peptide 2; UniProt P01275 146-178, looked up, variant L17K K30R) [GLP-2 analogue expressed in yeast] | 4 pH
